Tests used:
[1] = Dynamic change of the concentration of HpD and HMME in chicken blood; assay type: in vivo; settings: 10 mg/kg neck vein
Procedure: HpD and HMME in chicken blood were monitored at various times after injection. HpD or HMME was injected in chicken neck veins at a dose of 10 mg/kg, taking a blood sample every 10 minutes following injection. […] The two curves shown in FIG. 2 have generally the same pattern.

port wine stain lesion = assay: PDT for PWS, therapeutic effect assessment; assay type: in vivo, human
Procedure: The effectiveness of PWS treatment with […] is categorized as being Excellent (I), Good (II), Effective (III) or Ineffective (IV). […] [table] A solution of 1 ml saline was injected in the superficial vein (e.g. median cubital vein) of patients to ensure no liquid leaked into tissues adjacent to the blood vessels into which the injection was made. At the same site, HMME was injected intravenously for 20 minutes with a constant flow rate by using an infusion pump. The doses applied were 2.5 mg/kg body weight or 5.0 mg/kg body weight. Next, 2-4 ml of saline solution was again injected to prevent the drugs from aggregating locally. Irradiation with KTP532 laser was then applied to the patient's lesion site 0-10 minutes after the start of injection, for a total duration of irradiation of either 20 minutes (denoted as the 20 min group), or 30 minutes (denoted as the 30 minute group). […] When irradiation was started immediately after the start of injection, the overlap between the injection and irradiation was about 20 minutes, when irradiation started 5 minutes after the start of injection, the overlap between drug injection and light irradiation was approximately 15 minutes, and when irradiation was started 10 minutes after the start of injection, the overlap was about 10 minutes. The therapeutic results were measured 8 weeks after the treatment. A dose of 5.0 mg/kg body weight of the poryphin based drug was injected, total irradiation durations were 20 min and 30 min respectively, and the effects and adverse effects were assessed. In this example doses of 2.5 and 5.0 mg/kg body weight respectively, were applied, the patient was irradiated for 20 min, and the therapeutic effects and the adverse effects were assessed.

[2] = 5.0 mg/kg, irradiation 20 min, 8 weeks after treatment
[3] = 5.0 mg/kg, irradiation 30 min, 8 weeks after treatment
[4] = Part B, 2.5 mg/kg group, irradiated 20 min, 8 weeks after treatment
[5] = Part B, 2.5 mg/kg group, irradiated 20 min, 8 weeks after treatment, 2.5 mg/kg
[6] = Part B, 5.0 mg/kg group, irradiated 20 min, 8 weeks after treatment
[7] = Part B, Purple type PWS, 2.5 mg/kg group, irradiated 20 min
[8] = Part B, Purple type PWS, 5.0 mg/kg group, irradiated 20 min
[9] = Part B, Red type PWS, 2.5 mg/kg group, irradiated 20 min
[10] = Part B, Red type PWS, 5.0 mg/kg group, irradiated 20 min
[11] = Part B, Thickening type PWS, 2.5 mg/kg group, irradiated 20 min
[12] = Part B, Thickening type PWS, 5.0 mg/kg group, irradiated 20 min
[13] = Purple type PWS, 5.0 mg/kg, irradiation 20 min
[14] = Purple type PWS, 5.0 mg/kg, irradiation 30 min
[15] = Red type PWS, 5.0 mg/kg, irradiation 20 min
[16] = Red type PWS, 5.0 mg/kg, irradiation 30 min
[17] = Thickening type PWS, 5.0 mg/kg, irradiation 20 min
[18] = Thickening type PWS, 5.0 mg/kg, irradiation 30 min

Work on hematoporphyrin monomethyl ether [HMME] yielded a Photosensitizer concentration in chicken blood ([1]; post-injection time 10 min) of 6.83 µg/mL, a Photosensitizer concentration in chicken blood ([1]; post-injection time 20 min) of 5.92 µg/mL and a Photosensitizer concentration in chicken blood ([1]; post-injection time 30 min) of 5.33 µg/mL. It also gave a Photosensitizer concentration in chicken blood ([1]; post-injection time 40 min) of 4.83 µg/mL, a Photosensitizer concentration in chicken blood ([1]; post-injection time 50 min) of 4.49 µg/mL and a Photosensitizer concentration in chicken blood ([1]; post-injection time 60 min) of 4.17 µg/mL. The Photosensitizer concentration in chicken blood ([1]; post-injection time 70 min) was 3.83 µg/mL, the Photosensitizer concentration in chicken blood ([1]; post-injection time 80 min) was 3.58 µg/mL and the Photosensitizer concentration in chicken blood ([1]; post-injection time 90 min) was 3.51 µg/mL. The Photosensitizer concentration in chicken blood ([1]; post-injection time 100 min) was 2.67 µg/mL, the Photosensitizer concentration in chicken blood ([1]; post-injection time 110 min) was 2.42 µg/mL and the Photosensitizer concentration in chicken blood ([1]; post-injection time 120 min) was 1.99 µg/mL. For the same substance, the “time after injection at which serum concentration reaches a peak” value ([1]; chicken) was 10 min, the “Excellent (cases)” value (port wine stain lesion; [2]) was 2 and the Excellent rate % (port wine stain lesion; [2]) was 10.0%. The “Good (cases)” value (port wine stain lesion; [2]) was 9, the “Ineffective (cases)” value (port wine stain lesion; [2]) was 4 and the “Moderate (cases)” value (port wine stain lesion; [2]) was 5. For the same substance, the Response rate % (port wine stain lesion; [2]) was 80.0%, the “Significant response rate %” value (port wine stain lesion; [2]) was 55.0% and the “Excellent (cases)” value (port wine stain lesion; [3]) was 7. For the same substance, the Excellent rate % (port wine stain lesion; [3]) was 36.8%, the “Good (cases)” value (port wine stain lesion; [3]) was 8 and the “Ineffective (cases)” value (port wine stain lesion; [3]) was 1. The “Moderate (cases)” value (port wine stain lesion; [3]) was 3, the Response rate % (port wine stain lesion; [3]) was 94.7% and the “Significant response rate %” value (port wine stain lesion; [3]) was 78.9%. For the same substance, the “Excellent (cases)” value (port wine stain lesion; [4]) was 0, the “Good (cases)” value (port wine stain lesion; [4]) was 1 and the “Ineffective (cases)” value (port wine stain lesion; [4]) was 24. The “Moderate (cases)” value (port wine stain lesion; [4]) was 15, the “Significant response rate %” value (port wine stain lesion; [4]) was 2.5% and the Excellent rate % (port wine stain lesion; [5]) was 0%. The Response rate % (port wine stain lesion; [5]) was 40%, the “Excellent (cases)” value (port wine stain lesion; [6]) was 2 and the Excellent rate % (port wine stain lesion; [6]) was 5.0%. For the same substance, the “Good (cases)” value (port wine stain lesion; [6]) was 14, the “Ineffective (cases)” value (port wine stain lesion; [6]) was 10 and the “Moderate (cases)” value (port wine stain lesion; [6]) was 14. For the same substance, the Response rate % (port wine stain lesion; [6]) was 75.0%, the “Significant response rate %” value (port wine stain lesion; [6]) was 40.0% and the “Excellent (cases)” value (port wine stain lesion; [7]) was 0. The Excellent rate % (port wine stain lesion; [7]) was 0.0%, the “Good (cases)” value (port wine stain lesion; [7]) was 0 and the “Ineffective (cases)” value (port wine stain lesion; [7]) was 14. For the same substance, the “Moderate (cases)” value (port wine stain lesion; [7]) was 3, the Response rate % (port wine stain lesion; [7]) was 17.6% and the “Significant response rate %” value (port wine stain lesion; [7]) was 0.0%. The “Excellent (cases)” value (port wine stain lesion; [8]) was 0, the Excellent rate % (port wine stain lesion; [8]) was 0.0% and the “Good (cases)” value (port wine stain lesion; [8]) was 7. The “Ineffective (cases)” value (port wine stain lesion; [8]) was 8, the “Moderate (cases)” value (port wine stain lesion; [8]) was 9 and the Response rate % (port wine stain lesion; [8]) was 66.7%. The “Significant response rate %” value (port wine stain lesion; [8]) was 29.2%, the “Excellent (cases)” value (port wine stain lesion; [9]) was 0 and the Excellent rate % (port wine stain lesion; [9]) was 0.0%. The “Good (cases)” value (port wine stain lesion; [9]) was 1, the “Ineffective (cases)” value (port wine stain lesion; [9]) was 7 and the “Moderate (cases)” value (port wine stain lesion; [9]) was 8. For the same substance, the Response rate % (port wine stain lesion; [9]) was 56.3%, the “Significant response rate %” value (port wine stain lesion; [9]) was 6.3% and the “Excellent (cases)” value (port wine stain lesion; [10]) was 2. The Excellent rate % (port wine stain lesion; [10]) was 14.3%, the “Good (cases)” value (port wine stain lesion; [10]) was 7 and the “Ineffective (cases)” value (port wine stain lesion; [10]) was 1. The “Moderate (cases)” value (port wine stain lesion; [10]) was 4, the Response rate % (port wine stain lesion; [10]) was 92.9% and the “Significant response rate %” value (port wine stain lesion; [10]) was 64.3%. The “Excellent (cases)” value (port wine stain lesion; [11]) was 0, the Excellent rate % (port wine stain lesion; [11]) was 0/7 and the “Good (cases)” value (port wine stain lesion; [11]) was 0. For the same substance, the “Ineffective (cases)” value (port wine stain lesion; [11]) was 3, the “Moderate (cases)” value (port wine stain lesion; [11]) was 4 and the Response rate % (port wine stain lesion; [11]) was 4/7. For the same substance, the “Significant response rate %” value (port wine stain lesion; [11]) was 0/7, the “Excellent (cases)” value (port wine stain lesion; [12]) was 0 and the Excellent rate % (port wine stain lesion; [12]) was 0/2. The “Good (cases)” value (port wine stain lesion; [12]) was 0, the “Ineffective (cases)” value (port wine stain lesion; [12]) was 1 and the “Moderate (cases)” value (port wine stain lesion; [12]) was 1. For the same substance, the Response rate % (port wine stain lesion; [12]) was 1/2, the “Significant response rate %” value (port wine stain lesion; [12]) was 0/2 and the “Excellent (cases)” value (port wine stain lesion; [13]) was 0. For the same substance, the Excellent rate % (port wine stain lesion; [13]) was 0/0, the “Good (cases)” value (port wine stain lesion; [13]) was 2 and the “Ineffective (cases)” value (port wine stain lesion; [13]) was 1. The “Moderate (cases)” value (port wine stain lesion; [13]) was 3, the Response rate % (port wine stain lesion; [13]) was 5/6 and the “Significant response rate %” value (port wine stain lesion; [13]) was 2/6. For the same substance, the “Excellent (cases)” value (port wine stain lesion; [14]) was 1, the Excellent rate % (port wine stain lesion; [14]) was 1/8 and the “Good (cases)” value (port wine stain lesion; [14]) was 5. For the same substance, the “Ineffective (cases)” value (port wine stain lesion; [14]) was 0, the “Moderate (cases)” value (port wine stain lesion; [14]) was 2 and the Response rate % (port wine stain lesion; [14]) was 8/8. For the same substance, the “Significant response rate %” value (port wine stain lesion; [14]) was 6/8, the “Excellent (cases)” value (port wine stain lesion; [15]) was 2 and the Excellent rate % (port wine stain lesion; [15]) was 2/11. For the same substance, the “Good (cases)” value (port wine stain lesion; [15]) was 7, the “Ineffective (cases)” value (port wine stain lesion; [15]) was 0 and the “Moderate (cases)” value (port wine stain lesion; [15]) was 2. For the same substance, the Response rate % (port wine stain lesion; [15]) was 11/11, the “Significant response rate %” value (port wine stain lesion; [15]) was 9/11 and the “Excellent (cases)” value (port wine stain lesion; [16]) was 6. The Excellent rate % (port wine stain lesion; [16]) was 6/10, the “Good (cases)” value (port wine stain lesion; [16]) was 2 and the “Ineffective (cases)” value (port wine stain lesion; [16]) was 1. For the same substance, the “Moderate (cases)” value (port wine stain lesion; [16]) was 1, the Response rate % (port wine stain lesion; [16]) was 9/10 and the “Significant response rate %” value (port wine stain lesion; [16]) was 8/10. The “Excellent (cases)” value (port wine stain lesion; [17]) was 0, the Excellent rate % (port wine stain lesion; [17]) was 0/0 and the “Good (cases)” value (port wine stain lesion; [17]) was 0. The “Ineffective (cases)” value (port wine stain lesion; [17]) was 3, the “Moderate (cases)” value (port wine stain lesion; [17]) was 0 and the Response rate % (port wine stain lesion; [17]) was 0/0. For the same substance, the “Significant response rate %” value (port wine stain lesion; [17]) was 0/0, the “Excellent (cases)” value (port wine stain lesion; [18]) was 0 and the Excellent rate % (port wine stain lesion; [18]) was 0/0. For the same substance, the “Good (cases)” value (port wine stain lesion; [18]) was 1, the “Ineffective (cases)” value (port wine stain lesion; [18]) was 0 and the “Moderate (cases)” value (port wine stain lesion; [18]) was 0. The Response rate % (port wine stain lesion; [18]) was 1/1 and the “Significant response rate %” value (port wine stain lesion; [18]) was 1/1.

Source: patent publication US20120029045A1, “METHOD FOR TREATING PORT WINE STAINS” (SHANGHAI FUDAN-ZHANGJIANG BIO-PHARMACEUTICAL CO., LTD., priority 2010, published 2012)
